Results: patent US9481659B2, “Selective heterocyclic sphingosine 1 phosphate receptor modulators” (Celgene International II SÀRL, priority 2011, dated 2016)
pEC50: −log10 of the molar value. Counter-ions that a name gives are not always drawn. Like-named read-outs stand apart in the source and are kept apart here.

What was measured:
S1P1/EDG1 = S1P1/EDG1 (Homo sapiens, UniProt P21453); experiment: S1P1 CRE-bla CHOK1 reporter assay, inhibition of Forskolin induced cAMP; type: cell-based; details: S1P1 CRE-bla CHOK1 cells, 2 μM Forskolin
In short: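 CRE-bla CHO K1 cells stably expressing human S1P1 were treated 4 hrs at 37° C with 10-point compound dilutions plus 2 μM Forskolin. Inhibition of cAMP-driven β-lactamase reporter was read with a FRET substrate loaded 2 hrs at room temperature.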

S1P2 = target: T1, S1P2 (Homo sapiens, UniProt O95136); experiment: Specificity over other S1P receptors: S1P2 CRE-bla CHOK1; type: cell-based; details: S1P2 CRE-bla CHOK1, without Forskolin; read-out: S1P2 agonist value (EC50)
T1 construct: expressed in transfected cells; host or cells: CRE-bla CHOK1
Method: (§1) Cells were seeded into 384-well black wall/clear bottom plates at 10^4 cells/well/19.5 μl assay media (DMEM-phenol free, 0.5% charcoal/dextran stripped serum, 2 mM glutamine, 0.1 mM NEAA, 1 mM Na-Pyruvate, 25 mM Hepes) and incubated for 18 hrs at 37° C. in 5% CO2. Dose response curves (10-point) were generated in 10 mM Hepes, 0.1% Pluronic F127, in the presence of Forskolin. Cells were treated with 0.5 μl compound in the presence of 2 μM Forskolin for 4 hrs at 37° C. The FRET-based β-lactamase fluorescent substrate (LiveBLAzer™-FRET B/G Loading Kit CC4-AM; Invitrogen) was prepared according to manufacturer's directions, and incubated with cells for 2 hrs at room temperature. Plates were read at Ex:410/Em:458 and Ex:410/Em:522, and the response ratio determined Data was analyzed by non-linear regression to determine the EC50 for inhibition of Forskolin induced cAMP.
(§2) To assess compound specificity on other […] receptors the following cell lines were used: S1P2 CRE-bla CHOK1, S1P3-Gα15 NFAT-bla HEK293T (Invitrogen), S1P4-bla TANGO U2OS (Invitrogen), S1P5-bla TANGO U2OS (Invitrogen). The same assay set up for S1P1 was used but without Forskolin. S1P4 and S1P5 assays were performed in FreeStyle Expression medium (Invitrogen). S1P5 cells were incubated for 48 hrs in prior to treatment with compound.

S1P4 = target: T2, S1P4 (Homo sapiens, UniProt O95977); experiment: Specificity over other S1P receptors: S1P4-bla TANGO U2OS; type: cell-based; details: without Forskolin, read-out: S1P4 agonist value (EC50)
T2 construct: Tango fusion: TEV protease site plus GAL4-VP16 transcription factor (own knowledge of the Tango format); host or cells: U2OS (bla TANGO)
T2 sequence (O95977 1-384): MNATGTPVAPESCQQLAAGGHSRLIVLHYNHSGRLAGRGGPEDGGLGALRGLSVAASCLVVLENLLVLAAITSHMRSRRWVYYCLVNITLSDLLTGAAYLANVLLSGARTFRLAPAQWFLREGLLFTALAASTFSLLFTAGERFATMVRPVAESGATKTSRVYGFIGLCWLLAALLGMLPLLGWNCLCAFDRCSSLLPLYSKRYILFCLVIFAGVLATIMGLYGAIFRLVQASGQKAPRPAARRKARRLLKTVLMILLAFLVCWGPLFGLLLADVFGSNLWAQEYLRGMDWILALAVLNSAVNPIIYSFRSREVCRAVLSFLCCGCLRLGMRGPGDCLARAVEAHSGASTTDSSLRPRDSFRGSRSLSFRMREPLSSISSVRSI
Method: as §1, with “temperature.” for “temperature. Plates were read at Ex:410/Em:458 and Ex:410/Em:522, and the response ratio determined Data was analyzed by non-linear regression to determine the EC50 for inhibition of Forskolin induced cAMP.”
as §2

S1P3 = target: T3, S1P3 (Homo sapiens, UniProt Q99500); experiment: Specificity over other S1P receptors: S1P3-Gα15 NFAT-bla HEK293T; type: cell-based; details: without Forskolin, read-out: S1P3 agonist value (EC50)
T3 construct: host or cells: NFAT-bla HEK293T
Method: as §1, §2

[1] = system: CD4 or CD8 positive T cells; experiment: Lymphopenia in rats; type: in vivo; details: for inhibition in vivo at 0.2 mg/kg: po, rat, 24 h after a 0.2 mg/kg single dose; for ED50: read-out: ED50 (estimated dose needed to produce 50% lymphopenia), rat, at 24 h after a 3-5 day dosing regimen
Method: In rats: Female rats (Simonsen Laboratories, Gilroy Calif.) were housed in an ALAAC accredited facility and the research was approved by the facilities Institutional Animal Care and Use Committee (IACUC). The animals were acclimated to the laboratory for at least 5 days prior to initiation of experiments. Rats (n=3/compound/time-point) were dosed by oral gavage with 1 mg/kg compound formulated in a vehicle consisting of 5% DMSO/5% Tween 20 and 90% 0.1N HCL. Control rats were dosed PO with the vehicle. Whole blood was collected from isoflurane anesthetized rats via the retro-orbital sinus and terminal samples were collected by cardiac puncture into EDTA. Whole blood was incubated with mouse anti-rat CD32 (BD #550271), PE-mouse anti-rat CD45R/B220 (BD #554881), PECy5-mouse anti-rat CD4 (BD #554839), and APC-mouse anti-rat CD8a (eBioscience #17-0084) for 30 minutes on ice. Red blood cells were lysed using BD Pharm Lyse Lysing buffer (#555899) and white blood cells were analyzed with a BD FACSArray. Lymphopenia was expressed as the % of white blood cells that were CD4 or CD8 positive T cells. The overall lymphopenia response over 24 h was estimated by calculating the area under the effect curve (AUEC) using the linear trapezoidal rule. In some experiments, total lymphocyte counts were determined using a standard impedance based veterinary hematology analyzer (IDEXX Preclinical Research Services, Sacramento, Calif.).
The percentage of lymphopenia at 24 h after a 0.2 mg/kg single dose regiment is reported. […] N/A is not available.

S1P5 = target: T4, S1P5 (Homo sapiens, UniProt Q9H228); experiment: Specificity over other S1P receptors: S1P5-bla TANGO U2OS; type: cell-based; details: without Forskolin, read-out: S1P5 agonist value (EC50)
T4 construct: Tango fusion: TEV protease site plus GAL4-VP16 transcription factor (own knowledge of the Tango format); host or cells: U2OS (bla TANGO)
Method: as §1, with “temperature.” for “temperature. Plates were read at Ex:410/Em:458 and Ex:410/Em:522, and the response ratio determined Data was analyzed by non-linear regression to determine the EC50 for inhibition of Forskolin induced cAMP.”
as §2

[2] = agonist activity range, read-out: S1P1 ACTIVITY
[3] = read-out: S1P1 agonist value (EC50)

T1 sequence (O95136 whole entry, species assumed): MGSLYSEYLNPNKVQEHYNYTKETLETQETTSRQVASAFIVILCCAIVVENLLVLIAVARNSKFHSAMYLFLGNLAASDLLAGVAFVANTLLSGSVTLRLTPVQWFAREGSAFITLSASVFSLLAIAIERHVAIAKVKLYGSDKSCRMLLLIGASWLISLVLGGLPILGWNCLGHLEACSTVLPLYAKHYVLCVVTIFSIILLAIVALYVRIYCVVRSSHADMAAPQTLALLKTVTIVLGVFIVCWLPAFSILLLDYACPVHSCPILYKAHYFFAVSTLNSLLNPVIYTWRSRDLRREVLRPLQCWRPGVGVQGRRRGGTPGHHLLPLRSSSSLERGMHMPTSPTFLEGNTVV
T4 sequence (Q9H228 whole entry, the tested form may be a part): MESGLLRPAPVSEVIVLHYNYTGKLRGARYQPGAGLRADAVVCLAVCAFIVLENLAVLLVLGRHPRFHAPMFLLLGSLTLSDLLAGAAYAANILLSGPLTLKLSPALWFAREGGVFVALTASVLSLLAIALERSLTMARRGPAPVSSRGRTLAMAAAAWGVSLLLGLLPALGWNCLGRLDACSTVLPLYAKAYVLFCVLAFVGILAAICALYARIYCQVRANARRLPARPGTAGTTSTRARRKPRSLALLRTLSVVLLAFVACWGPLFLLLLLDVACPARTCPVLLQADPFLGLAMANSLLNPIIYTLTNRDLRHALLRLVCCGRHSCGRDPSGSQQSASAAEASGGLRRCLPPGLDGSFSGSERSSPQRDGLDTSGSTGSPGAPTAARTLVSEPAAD
Sequence of S1P1/EDG1 (P21453 whole entry): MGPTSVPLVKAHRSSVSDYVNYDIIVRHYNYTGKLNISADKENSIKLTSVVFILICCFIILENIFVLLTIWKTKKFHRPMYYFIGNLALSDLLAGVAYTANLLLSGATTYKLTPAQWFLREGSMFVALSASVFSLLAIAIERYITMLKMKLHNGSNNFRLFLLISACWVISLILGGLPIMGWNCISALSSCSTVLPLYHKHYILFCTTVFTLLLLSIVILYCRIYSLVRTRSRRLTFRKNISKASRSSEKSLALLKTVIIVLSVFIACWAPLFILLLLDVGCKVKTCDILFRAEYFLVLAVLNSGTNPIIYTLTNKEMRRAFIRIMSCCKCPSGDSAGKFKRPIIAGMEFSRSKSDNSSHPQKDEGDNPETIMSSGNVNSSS
T3 sequence (Q99500 whole entry): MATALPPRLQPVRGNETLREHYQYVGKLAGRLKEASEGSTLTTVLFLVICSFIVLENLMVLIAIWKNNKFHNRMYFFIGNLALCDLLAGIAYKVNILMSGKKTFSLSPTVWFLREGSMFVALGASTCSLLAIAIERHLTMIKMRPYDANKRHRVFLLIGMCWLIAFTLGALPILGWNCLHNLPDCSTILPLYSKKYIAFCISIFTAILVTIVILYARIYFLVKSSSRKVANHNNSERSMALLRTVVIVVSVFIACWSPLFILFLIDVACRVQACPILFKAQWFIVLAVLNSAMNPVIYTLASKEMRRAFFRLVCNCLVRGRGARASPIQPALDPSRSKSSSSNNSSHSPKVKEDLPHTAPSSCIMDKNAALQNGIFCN

Row | SMILES | pEC50 (S1P1/EDG1; [2]) | pEC50 (S1P2) | pEC50 (S1P4) | pEC50 (S1P3) | inhibition in vivo at 0.2 mg/kg [1] | pEC50 (S1P1/EDG1; [3]) | pEC50 (S1P5) | ED50 [1]
1 | CC(C)Oc1ccc(-c2nnc(-c3cccc4c3CC[C@H]4NC(=O)N3CCOCC3)s2)cc1C#N [Compound 58, (R)—N-(4-(5-(3-cyano-4-isopropoxyphenyl)-1,3,4-thiadiazol-2-yl)-2,3-dihydro-1H-inden-1-yl)morpholine-4-carboxamide] | 9.30 to 10.30 | < 5.00 | < 5.00 | – | – | – | – | –
2 | CC(C)Oc1ccc(-c2nnc(-c3cccc4c3CCC4NS(=O)(=O)CC(=O)N(C)C)s2)cc1C#N (stereo in doubt) [Compound 43, (R)-2-(N-(4-(5-(3-cyano-4-isopropoxyphenyl)-1,3,4-thiadiazol-2-yl)-2,3-dihydro-1H-inden-1-yl)sulfamoyl)-N,N-dimethylacetamide] | – | < 5.00 | < 5.00 | < 5.00 | 40% | – | – | –
3 | CC(C)Oc1ccc(-c2ncc(-c3cccc4c3CC[C@H]4NS(N)(=O)=O)s2)cc1C#N [Compound 166, (R)—N-(4-(2-(3-cyano-4-isopropoxyphenyl)thiazol-5-yl)-2,3-dihydro-1H-inden-1-yl)sulfamide] | 9.30 to 10.30 | 5.07 | 6.13 | < 5.00 | 47% | 9.85 | 7.19 | 0.07 mg/kg
4 | CC(C)Oc1ccc(-c2nnc(-c3cccc4c3CC[C@H]4NC(=O)N3CC[C@@H](N(C)C)C3)s2)cc1C#N [Compound 56, (R)—N—((R)-4-(5-(3-cyano-4-isopropoxyphenyl)-1,3,4-thiadiazol-2-yl)-2,3-dihydro-1H-inden-1-yl)-3-(dimethylamino)pyrrolidine-1-carboxamide] | 9.30 to 10.30 | < 5.00 | < 5.00 | < 5.00 | 52% | 9.49 | 6.86 | –
5 | CC(C)Oc1ccc(-c2ncc(-c3cccc4c3CC[C@H]4NC(=O)N3CCOCC3)s2)cc1C#N [Compound 186, (R)—N-(4-(2-(3-cyano-4-isopropoxyphenyl)thiazol-5-yl)-2,3-dihydro-1H-inden-1-yl)morpholine-4-carboxamide] | 9.30 to 10.30 | < 5.00 | < 5.00 | – | – | – | – | –
6 | CC(C)Oc1ccc(-c2nnc(-c3cccc4c3CCC[C@H]4NCC(=O)N3CCCC3)s2)cc1C#N [Compound 303, (R)-2-isopropoxy-5-(5-(5-((2-oxo-2-(pyrrolidin-1-yl)ethyl)amino)-5,6,7,8-tetrahydronaphthalen-1-yl)-1,3,4-thiadiazol-2-yl)benzonitrile] | 9.30 to 10.30 | – | – | – | – | – | – | –
7 | CC(C)Oc1ccc(-c2nnc(-c3cccc4c3CCC[C@@H]4NC(=O)c3cccnc3)s2)cc1C#N [Compound 242] | 8.30 to 9.30 | – | – | – | – | – | – | –
8 | CC(C)Oc1ccc(-c2ncc(-c3cccc4c3CC[C@H]4NC(=O)N3CC[C@@H](N)C3)s2)cc1C#N [Compound 178] | 9.30 to 10.30 | – | – | – | – | – | – | –
9 | CC(C)Oc1ccc(-c2nnc(-c3cccc4c3CC[C@H]4N)s2)cc1C#N [Compound 5, (R)-5-(5-(1-amino-2,3-dihydro-1H-inden-4-yl)-1,3,4-thiadiazol-2-yl)-2isopropoxybenzonitrile hydrochloride] | 8.30 to 9.30 | – | – | – | – | – | – | –
10 | CC(C)Oc1ccc(-c2nnc(-c3cccc4c3CCC4NS(=O)(=O)CCO)s2)cc1C#N (stereo in doubt) [Compound 46, (R)—N-(4-(5-(3-cyano-4-isopropoxyphenyl)-1,3,4-thiadiazol-2-yl)-2,3-dihydro-1H-inden-1-yl)-2-hydroxyethanesulfonamide] | – | < 5.00 | – | < 5.00 | 39% | – | – | –
11 | CC(C)Oc1ccc(-c2ncc(-c3cccc4c3CC[C@H]4NC(=O)N3CCCC3)s2)cc1C#N [Compound 172, (R)—N-(4-(2-(3-cyano-4-isopropoxyphenyl)thiazol-5-yl)-2,3-dihydro-1H-inden-1-yl)pyrrolidine-1-carboxamide] | 9.30 to 10.30 | < 5.00 | < 5.00 | < 5.00 | 22% | 9.72 | 6.69 | 0.2 mg/kg
12 | CC(C)Oc1ccc(-c2ncc(-c3cccc4c3CC[C@@H]4NS(=O)(=O)CCN3CC[C@@H](O)C3)s2)cc1C#N [Compound 131] | 8.30 to 9.30 | – | – | – | – | – | – | –
13 | CNC(=O)CN[C@H]1CCCc2c(-c3nnc(-c4ccc(OC(C)C)c(C#N)c4)s3)cccc21 [Compound 306] | 9.30 to 10.30 | – | – | – | – | – | – | –
14 | CC(C)Oc1ccc(-c2ncc(-c3cccc4c3CC[C@H]4NC(=O)CN3CCCC3)s2)cc1C#N [Compound 85] | < 8.30 | – | – | – | – | – | – | –
